Source: patent US10316049B2, “Tank-binding kinase inhibitor compounds” (Gilead Sciences, Inc., priority 2015, dated 2019)

How the values were obtained:
IKKε = target: T1, IKKε (Homo sapiens, UniProt Q14164); assay: TR-FRET enzymatic activity assay, IKKε; type: biochemical; conditions: read-out: IKKϵ IC50; further: full length recombinant IKKε at 0.3 nM
T1 construct: TBK1 and IKKε were expressed and purified as full length recombinant proteins; made in house
T1 sequence (Q14164 1-716): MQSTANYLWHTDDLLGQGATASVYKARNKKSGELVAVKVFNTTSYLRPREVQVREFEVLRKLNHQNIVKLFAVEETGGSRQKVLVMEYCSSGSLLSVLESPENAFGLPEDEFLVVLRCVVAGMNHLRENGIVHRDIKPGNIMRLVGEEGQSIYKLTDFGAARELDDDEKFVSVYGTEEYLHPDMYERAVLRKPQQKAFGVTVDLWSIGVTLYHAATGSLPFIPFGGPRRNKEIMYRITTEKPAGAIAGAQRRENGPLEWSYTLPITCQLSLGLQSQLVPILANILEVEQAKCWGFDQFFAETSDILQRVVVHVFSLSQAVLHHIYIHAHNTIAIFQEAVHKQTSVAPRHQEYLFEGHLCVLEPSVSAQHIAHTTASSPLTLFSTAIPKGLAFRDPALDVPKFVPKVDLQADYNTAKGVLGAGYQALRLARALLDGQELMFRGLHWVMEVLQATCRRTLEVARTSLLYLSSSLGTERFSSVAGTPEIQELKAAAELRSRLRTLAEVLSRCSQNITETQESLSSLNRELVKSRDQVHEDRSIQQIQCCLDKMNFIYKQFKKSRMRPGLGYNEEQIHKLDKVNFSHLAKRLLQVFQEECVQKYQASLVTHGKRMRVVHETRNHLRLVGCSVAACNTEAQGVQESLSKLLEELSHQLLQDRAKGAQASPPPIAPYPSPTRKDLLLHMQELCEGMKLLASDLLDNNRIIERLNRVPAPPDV
Protocol: (§1) Biological Assay for TBK1 and IKKε:
Enzymatic activity of IKKε and TBK1 was measured using a homogeneous time resolved fluorescence resonance energy transfer (TR-FRET) assay that monitors enzyme dependent phosphorylation of a biotinylated serine/threonine peptide substrate. […] TBK1 and IKKε were expressed and purified as full length recombinant proteins. Detection reagents for the assay were purchased from Cisbio. […] After an assay reaction time of 240 minutes at 25° C., reactions were terminated with EDTA.
(§2) Amount of phosphorylated peptide was determined by the addition of 125 nM streptavidin XL665 and europium cryptate labeled anti-phospho monoclonal antibody and the resulting TR-FRET signal was recorded on an Envision plate reader (Ex: 340 nm; Em: 615/665 nm; 100 μs delay and 200 μs read window). Data was normalized based on a positive (1 μM Staurosporine) and negative (DMSO) controls and IC50 values calculated from the fit of the dose-response curves to a four-parameter equation. All IC50 values represent geometric mean values of a minimum of four determinations.

TBK1 = target: T2, TBK1 (Homo sapiens, UniProt Q9UHD2); assay: TR-FRET enzymatic activity assay, TBK1; type: biochemical; further: full length recombinant TBK1 at 2.5 nM
T2 construct: TBK1 and IKKε were expressed and purified as full length recombinant proteins; made in house
T2 sequence (Q9UHD2 1-729): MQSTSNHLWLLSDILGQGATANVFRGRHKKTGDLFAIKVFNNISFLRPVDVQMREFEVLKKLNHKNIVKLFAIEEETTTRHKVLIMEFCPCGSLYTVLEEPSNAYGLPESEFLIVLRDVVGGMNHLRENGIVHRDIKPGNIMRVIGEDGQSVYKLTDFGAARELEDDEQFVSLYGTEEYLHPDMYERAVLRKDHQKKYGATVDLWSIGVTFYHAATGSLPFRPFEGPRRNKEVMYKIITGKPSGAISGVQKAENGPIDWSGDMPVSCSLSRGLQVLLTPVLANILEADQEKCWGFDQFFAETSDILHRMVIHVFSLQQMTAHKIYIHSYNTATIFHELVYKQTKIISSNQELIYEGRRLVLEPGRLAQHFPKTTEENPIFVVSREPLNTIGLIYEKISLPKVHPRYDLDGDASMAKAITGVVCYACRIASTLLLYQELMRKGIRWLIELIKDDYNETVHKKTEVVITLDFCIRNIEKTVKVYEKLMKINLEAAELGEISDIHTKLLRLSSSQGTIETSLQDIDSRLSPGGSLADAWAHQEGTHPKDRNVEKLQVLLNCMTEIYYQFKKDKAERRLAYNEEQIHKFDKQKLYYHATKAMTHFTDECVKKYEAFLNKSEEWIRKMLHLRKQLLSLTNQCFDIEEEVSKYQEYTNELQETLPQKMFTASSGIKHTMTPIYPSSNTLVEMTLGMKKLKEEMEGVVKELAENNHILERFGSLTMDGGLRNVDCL
Protocol: as §1
Enzymatic activity of IKKε and TBK1 was measured using a homogeneous time resolved fluorescence resonance energy transfer (TR-FRET) assay that monitors enzyme dependent phosphorylation of a biotinylated serine/threonine peptide substrate. An increase in the amount of phosphorylated peptide results in an increase in TR-FRET signal. TBK1 and IKKε were expressed and purified as full length recombinant proteins. Detection reagents for the assay were purchased from Cisbio. […] After an assay reaction time of 240 minutes at 25° C., reactions were terminated with EDTA.
as §2, with “determinations. These assays generally produced results within 3-fold of the reported mean.” for “determinations.”

| IC50 (IKKε) [nM] | IC50 (TBK1) [nM] | Compound |
| --- | --- | --- |
| 145 | 99.3 | N#Cc1cc(-c2ccnc(NC(=O)[C@@H]3C[C@@H]3CO)c2)ccc1O[C@H]1CCN(C(=O)CO)C[C@H]1F [Example 74, (1,2-cis)-N-(4-(3-Cyano-4-(((3R,4S)-3-fluoro-1-(2-hydroxyacetyl)piperidin-4-yl)oxy)phenyl)pyridin-2-yl)-2-(hydroxymethyl)cyclopropane-1-carboxamide] |
| 11.2 | 17.3 | N#Cc1cc(-c2ccnc(NC(=O)[C@@H]3C[C@H]3c3cccnc3)c2)ccc1O[C@H]1CCN(C(=O)CO)CC1(F)F [Example 141, (1R,2R)—N-(4-(3-cyano-4-(((S)-3,3-difluoro-1-(2-hydroxyacetyl)piperidin-4-yl)oxy)phenyl)pyridin-2-yl)-2-(pyridin-3-yl)cyclopropane-1-carboxamide] |
| 254 | 105 | N#Cc1cc(-c2cc(NC(=O)C3CC3)ncn2)ccc1O[C@@H]1CCN(C(=O)CO)C[C@H]1F [Example 111, N-(6-(3-cyano-4-(((3R,4R)-3-fluoro-1-(2-hydroxyacetyl)piperidin-4-yl)oxy)phenyl)pyrimidin-4-yl)cyclopropanecarboxamide] |
| 115 | 108 | N#Cc1cc(-c2ccnc(NC(=O)[C@@H]3C[C@H]3C(N)=O)c2)ccc1O[C@H]1CCN(C(=O)CO)C[C@H]1F [Example 85, (1,2-trans)-N-(4-(3-cyano-4-(((3R,4S)-3-fluoro-1-(2-hydroxyacetyl)piperidin-4-yl)oxy)phenyl)pyridin-2-yl)cyclopropane-1,2-dicarboxamide] |
| 53.3 | 47.9 | COC(=O)[C@@H]1C[C@H]1C(=O)Nc1cc(-c2ccc(O[C@H]3CCN(C(=O)CO)C[C@H]3F)c(C#N)c2)ccn1 (relative stereo) [Example 83, Methyl (1,2-trans)-2-((4-(3-cyano-4-(((3R,4S)-3-fluoro-1-(2-hydroxyacetyl)piperidin-4-yl)oxy)phenyl)pyridin-2-yl)carbamoyl)cyclopropane-1-carboxylate] |
| 10.4 | 3.5 | N#Cc1cc(-c2ccnc(NC(=O)[C@H]3C[C@@H]3c3cccnc3)c2)ccc1O[C@H]1CCN(C(=O)CO)C[C@H]1F [Example 136, (1S,2S)—N-(4-(3-cyano-4-(((3R,4S)-3-fluoro-1-(2-hydroxyacetyl)piperidin-4-yl)oxy)phenyl)pyridin-2-yl)-2-(pyridin-3-yl)cyclopropane-1-carboxamide] |
| 121 | 37.3 | N#CCC(=O)N1CC[C@H](Oc2ccc(-c3ccnc(NC(=O)C4CC4)c3)cc2C#N)[C@H](F)C1 [Example 12, N-(4-(3-cyano-4-(((3R,4S)-1-(2-cyanoacetyl)-3-fluoropiperidin-4-yl)oxy)phenyl)pyridin-2-yl)cyclopropanecarboxamide] |
| 357 | 256 | N#Cc1cc(-c2ccnc(NC(=O)C3CC3c3nc[nH]n3)c2)ccc1O[C@H]1CCN(C(=O)CO)C[C@H]1F (stereo partly drawn) [Example 76, N-(4-(3-Cyano-4-(((3R,4S)-3-fluoro-1-(2-hydroxyacetyl)piperidin-4-yl)oxy)phenyl)pyridin-2-yl)-2-(1H-1,2,4-triazol-3-yl)cyclopropane-1-carboxamide] |

Second part, the compound before the results:

| Compound | IC50 (IKKε) [nM] | IC50 (TBK1) [nM] |
| --- | --- | --- |
| N#Cc1cc(-c2ccnc(NC(=O)[C@H]3C[C@@H]3C(F)F)c2)ccc1OC1CCOCC1 (relative stereo) [Example 101, (1,2-trans)-N-(4-(3-cyano-4-((tetrahydro-2H-pyran-4-yl)oxy)phenyl)pyridin-2-yl)-2-(difluoromethyl)cyclopropane-1-carboxamide] | > 1000 | 96.8 |
| N#Cc1cc(-c2ccnc(NC(=O)C3CC3)c2)ccc1N1CC[C@H](F)C1 [Example 18, (S)—N-(4-(3-cyano-4-(3-fluoropyrrolidin-1-yl)phenyl)pyridin-2-yl)cyclopropanecarboxamide] | 61.3 | 20.3 |
| CO[C@H]1CCN(c2ccc(-c3ccnc(NC(=O)C4CC4)c3)cc2C#N)C1 [Example 94, (S)—N-(4-(3-cyano-4-(3-methoxypyrrolidin-1-yl)phenyl)pyridin-2-yl)cyclopropanecarboxamide] | 195 | 120 |
| C[C@H](O)C(=O)N1CC[C@H](Oc2ccc(-c3ccnc(NC(=O)C4CC4)c3)cc2C#N)C(F)(F)C1 [Example 11, N-(4-(3-cyano-4-(((S)-3,3-difluoro-1-((S)-2 hydroxypropanoyl)piperidin-4-yl)oxy)phenyl)pyridin-2-yl)cyclopropanecarboxamide] | 26.3 | 10.2 |
| N#Cc1cc(-c2cc(NC(=O)C3CC3)ncn2)ccc1O[C@@H]1CCN(C(=O)CO)CC1(F)F [Example 110, (R)—N-(6-(3-cyano-4-((3,3-difluoro-1-(2-hydroxyacetyl)piperidin-4-yl)oxy)phenyl)pyrimidin-4-yl)cyclopropanecarboxamide] | 737 | 317 |
| N#Cc1cc(-c2ccnc(NC(=O)C3C4CC3C4C(N)=O)c2)ccc1OC1CCOCC1 (stereo not shown) [Example 56, N-(4-(3-cyano-4-((tetrahydro-2H-pyran-4-yl)oxy)phenyl)pyridin-2-yl)bicyclo[1.1.1]pentane-2,4-dicarboxamide] | 444 | > 1000 |
| N#Cc1cc(-c2ccnc(NC(=O)[C@H]3C[C@@H]3c3cccc(F)c3)c2)ccc1OC1CCOCC1 (relative stereo) [Example 119, (1,2-Trans)-N-(4-(3-cyano-4-((tetrahydro-2H-pyran-4-yl)oxy)phenyl)pyridin-2-yl)-2-(3-fluorophenyl)cyclopropane-1-carboxamide] | > 1000 | 99.3 |
| Cc1cc([C@@H]2C[C@H]2C(=O)Nc2cc(-c3ccc(OC4CCOCC4)c(C#N)c3)ccn2)on1 (relative stereo) [Example 47, (1,2-trans)-N-(4-(3-cyano-4-((tetrahydro-2H-pyran-4-yl)oxy)phenyl)pyridin-2-yl)-2-(3-methylisoxazol-5-yl)cyclopropane-1-carboxamide] | 269 | 29.4 |
| N#Cc1cc(-c2cc(NC(=O)C3CC3)ncn2)ccc1O[C@H]1CCN(C(=O)[C@@H](O)CO)CC1(F)F [Example 22, N-(6-(3-cyano-4-(((S)-1-((S)-2,3-dihydroxypropanoyl)-3,3-difluoropiperidin-4-yl)oxy)phenyl)pyrimidin-4-yl)cyclopropanecarboxamide] | 9 | 2.8 |
